Measured values: patent US5968526A, “T cell epitopes of the major allergens from Dermatophagoides (house dust mite)” (Immulogic Pharamaceutical Corporation, priority 1995, dated 1999)

Tests used:
Assay type in all cases: cell-based, human
[1] = system: T cell lines primed in vitro to Der p I; test: secondary proliferation of Der p I-primed T cell lines (Examples V, VII, XI); conditions: for T cell response to Der f I peptides / T cell response to selected Der f I peptides: Der p I primed; for T cell response to Der f I peptides: 14 positive experiments, FIG. 7; for T cell response to selected Der f I peptides: 30 positive experiments, FIG. 15a; for T cell response to selected Der p I peptides: FIG. 13; for positivity index (P.I.): mean S.I. × percent responders, 33 patients
Procedure: 10^7 PBMC from individual 543 were cultured in 10 ml RPMI-1640 containing 5% pooled human AB serum and supplemented with glutamine, penicillin, streptomycin and HEPES buffer in the presence of 20 μg/ml purified native Der p I/ml at 37° C. for 7 days. Viable cells were then purified by Ficoll-Hypaque centrifugation and cultured for 2 additional weeks in RPMI-1640/5% AB serum containing 5 units recombinant human IL-2/ml and 5 units recombinant human IL-4/ml. The resting T cells were then tested in a secondary proliferation assay to assess T cell responses to various house dust mite proteins and peptides. For assay, 2×10^4 resting T cells were cultured in 200 μl of RPMI-1640/5% AB serum for 3 days at 37° C. in the presence of 2×10^4 autologous Epstein-Barr virus transformed B cells (20,000 Rads) as antigen presenting cells with various concentrations of purified native Der p I or synthetic Der p I peptides. Each well then received 1 μCi tritiated thymidine for 16 hours. The counts incorporated were collected onto glass fiber filters and processed for liquid scintillation counting. Medium alone, acting as negative control, contained no allergen or peptide. The results of this experiment indicate that this particular patient responds with an S.I. of at least 2.0 to several peptides derived from the Der p I protein, including DP I-1, DP I-2, DP I-4, DP I-11, DP I-5, DP I-13, DP I-15, DP I-6.1, DP I-8, DP I-9, DP I-16, DP I-10 and DP I-17 (data not shown).
The above procedure was followed with a number of other house dust mite allergic individuals except a) in individual cases, the length of time of cultivation with IL-2 and IL-4 varied; b) in individual cases, the T cells were primed with either purified native (N) or recombinant (R) Der p I protein at either 20 μg/ml or 10 μg/ml; and c) in individual cases, x-irradiated (3500 Rads) autologous PBMC were used as antigen presenting cells in the secondary proliferation assay.
Individual results were considered positive and used if the individual responded to the Der p I protein and at least one peptide derived from Der p I at an S.I. of 2.0 or greater. The resting T cell lines primed with recombinant or native Der p I-stimulated PBMC were tested for reactivity to synthetic Der p I peptides. The maximum response for each peptide in a titration of the antigen is expressed as the T cell stimulation index (S.I.). The S.I. is the counts-per-minute (CPM) incorporated by cells in response to the peptide divided by the CPM incorporated by cells in medium only. […] However, only individual S.I. values greater than or equal to 2.0 (a response two-fold or greater over background), referred to herein as "positive" results, were used in calculating mean T cell stimulation indices for each peptide for the patient or group of patients tested. […] The T cell stimulation index is calculated by: [formula]
The bar represents the cumulative rank of the peptide response in the group of patients. To determine the cumulative rank, the 5 peptides with the highest S.I. in each individual were determined and assigned a numerical rank in descending order, with 5 representing the strongest response. The ranks for each peptide were then summed in the group of patients to determine the cumulative rank for the peptide. […] Given the percent positive and the mean T cell stimulation index, the positivity index (P.I.) for each peptide can be calculated.
The Der p I and Der f I proteins are very homologous (81% identity). Thus, experiments, similar to those of Example V, were carried out to determine the T cell responses of Der p I primed T cell lines when challenged with various Der p I peptides and substantially matching […].
The results of T cell studies using selected peptides derived from the Der p I, the Der f I, the Der p II and the Der f II proteins are shown in FIGS. 13-18a-d. […]

[2] = system: T cell lines primed in vitro to Der f I; test: secondary proliferation of Der f I-primed T cell lines (Examples VI, VII, XI); conditions: for T cell reactivity: overlapping Der f I peptides, 16 positive experiments, FIG. 6; for T cell response: patient 783, recombinant Der f I primed, data not shown; for stimulation index, rank in group: 9 patients, FIG. 16a / 16b
Procedure: Experiments similar to those of Example V were performed to determine. the T cell-reactive areas of the Der f I protein. For example, PBMC from house dust mite-allergic patient 783 were isolated as described in Example V and were stimulated in vitro-- with recombinant purified Der f I at 20 μg/ml. The results of the proliferation assay with Der f I peptides using x-irradiated (3500 Rads) autologous PBMC as antigen presenting cells indicate that T cells from this patient respond to the peptides DF I-8.1, DF I-9, DF I-6, DF I-10, DF I-2.1, DF I-3, DF I-11, DF I-5, DF I-1, and DF I-17 (data not shown).
The above procedure was followed in a number of patients except in individual cases, T cell lines were primed with affinity purified Der f I at 20 μg/ml or at 10 μg/ml and x-irradiated (25,000 Rads) autologous Epstein-Barr virus transformed B cells were used as antigen presenting cells. […]
Similarly, the procedure described in Example VI was followed with T cell lines from 9 patients primed in vitro to the Der f I protein then analyzed for response to selected peptides derived from the protein. The data was analyzed as described in Example VI. […]

[3] = system: T cell lines primed in vitro to Der p II; test: secondary proliferation of Der p II-primed T cell lines (Examples VIII, X, XI); conditions: for T cell reactivity: overlapping Der p II peptides, FIG. 9; for T-cell reactivity (DPII-22 series development): Der p II T-cell map and analogs
Procedure: Experiments similar to those of Example V were performed to determine the T cell-reactive areas of the Der p II protein. For example, PBMC from house dust mite-allergic patient 348 were isolated as described in Example V and were stimulated in vitro with 20 μg/ml purified native Der p II.
The above procedure was followed with a number of patients except in individual cases, T cell lines were primed with recombinant Der p II at 20 μg/ml or at 3 μg/ml and x-irradiated (3500 Rads) autologous PBMC were used as antigen-presenting cells. The data was analyzed as described in Example V, except the ranked sum of peptide responses was analyzed assigning a value of 3, 2 or 1 to the three highest S.I. responses.
A study similar to that described in Example VII was carried out to determine the T cell cross-reactivity of the Der p II and Der f II proteins. T cells primed with the Der f II protein were challenged with various Der f II peptides and a set of substantially matching Der p II peptides.
Another experiment following the procedure described in Example VIII analyzed the response of 29 patients primed in vitro to the Der p II protein and challenged with selected peptides derived from the Der p II sequence.

For “DF I-1: Der f I peptide, amino acid residues 1-20 (TSACRINSVNVPSELDLRSLR)”, the “T cell response to Der f I peptides” value [1] was “respond significantly”, the T cell reactivity [2] was “significant areas of T cell reactivity” and the T cell response [2] was “respond”.
For “DF I-2.1: Der f I peptide (ELDLRSLRTVTPIRMQGGCGSCWAFSG)”, the T cell response [2] was “respond”.
With “DF I-3: Der f I peptide (TVTPIRMQGGCGSCWAFSGVAATESAYLA)” the “T cell response to Der f I peptides” value [1] was “respond significantly”, the T cell reactivity [2] was “significant areas of T cell reactivity” and the T cell response [2] was “respond”.
For “DF I-4: Der f I peptide (VAATESAYLAYRNTSLDLSEQ)”, the “T cell response to Der f I peptides” value [1] was “respond significantly” and the T cell reactivity [2] was “significant areas of T cell reactivity”.
“DF I-5: Der f I peptide (GDTIPRGIEYIQQNGVVEERSYPYVARE)” was tested, and the T cell reactivity [2] was “significant areas of T cell reactivity” and the T cell response [2] was “respond”.
In the case of “DF I-6: Der f I peptide (YPPDVKQIREALFQTHTAIAVIIG)”, the “T cell response to Der f I peptides” value [1] is reported as “respond significantly”, the T cell reactivity [2] is reported as “significant areas of T cell reactivity” and the T cell response [2] is reported as “respond”.
In the case of “DF I-7: Der f I peptide (TQTHTAIAVIIGIKDLRAFQHYDGRT)”, the T cell reactivity [2] is reported as “significant areas of T cell reactivity”.
With “DF I-8.1: Der f I peptide (IKDLRAFQHYDGRTIIQHDNGYQPNY)” the T cell reactivity [2] was “significant areas of T cell reactivity” and the T cell response [2] was “respond”.
With “DF I-10: Der f I peptide (QGDDYWIVRNSWDTTWGDSGYGYF)” the T cell response [2] was “respond”.
For “DF I-11: Der f I peptide (YRNTSLDLSEQELVDCASQHGC)”, the “T cell response to Der f I peptides” value [1] was “respond significantly”, the T cell reactivity [2] was “significant areas of T cell reactivity” and the T cell response [2] was “respond”.
“DF I-12: Der f I peptide (ELVDCASQHGCHGDTIPRGIE)” was tested, and the “T cell response to Der f I peptides” value [1] was “respond significantly”.
In the case of “DF I-14: Der f I peptide (QRCRRPNSQHYGISNYCQI)”, the T cell reactivity [2] is reported as “significant areas of T cell reactivity”.
“DF I-15: Der f I peptide (HYGISNYCQIYPPDVKQIREAL)” was tested, and the “T cell response to Der f I peptides” value [1] was “respond significantly”.
With “DF I-17: Der f I peptide (GDSGYGYFQAGNNLMMIEQYPYVVIM)” the T cell response [2] was “respond”.
In the case of “DF I-21.1: Der f I peptide (TSACRINSVNVPSELDLRSLRTVTPIRMQ)”, the “T cell response to selected Der f I peptides” value [1] is reported as “respond significantly”.
In the case of “DF I-21.2: Der f I peptide (RINSVNVPSELDLRSLRTVTPIRMQ)”, the “T cell response to selected Der f I peptides” value [1] is reported as “respond significantly”.
For “DF I-22.1: Der f I peptide (AFSGVAATESAYLAYRNTSLDLSEQELVD)”, the “stimulation index, rank in group” value [2] was “highest stimulation indexes”.
For “DF I-23.1: Der f I peptide (EYIQQNGVVEERSYPYVAREQRCRRPNSQ)”, the “T cell response to selected Der f I peptides” value [1] was “respond significantly”.
With “DF I-23.2: Der f I peptide (DTIPRGIEYIQQNGVVEERSYPYVAREQR)” the “T cell response to selected Der f I peptides” value [1] was “respond significantly”.
“DF I-25.1: Der f I peptide (QIYPPDVKQIREALTQTHTAIAVIIGIKD)” was tested, and the “T cell response to selected Der f I peptides” value [1] was “respond significantly” and the “stimulation index, rank in group” value [2] was “highest stimulation indexes”.
“DF I-26.1: Der f I peptide (IIGIKDLRAFQHYDGRTIIQHDNGYQ)” was tested, and the “T cell response to selected Der f I peptides” value [1] was “respond significantly”.
For “DF I-27.1: Der f I peptide (HDNGYQPNYHAVNIVGYGSTQGDDY)”, the “T cell response to selected Der f I peptides” value [1] was “respond significantly”.
With “DF II-18: Der f II peptide (DAKYTWNVPKIAPKSENVVVTVKLVG)” the “T cell response to Der f II peptides” value ([3]; Der p II primed, 26 positive experiments, FIG. 12) was “respond significantly”.
In the case of “DP I-5: Der p I peptide (GDTIPRGIEYIQHNGVVQESYYRYVARE)”, the T cell reactivity ([1]; overlapping Der p I peptides, 33 positive experiments) is reported as “significant regions of T cell reactivity” and the “T cell response to Der p I peptides” value ([2]; Der f I primed, 8 positive experiments, FIG. 8) is reported as “respond significantly”.
For “DP I-22.1: Der p I peptide (AFSGVAATESAYLAHRNQSLDLAEQELVD)”, the “T cell response to selected Der p I peptides” value ([1]; 33 positive experiments) was “respond significantly”.
With “DP I-23.2: Der p I peptide (DTIPRGIEYIQHNGVVQESYYRYVAREQS)” the “T cell response to selected Der p I peptides” value ([1]; 33 positive experiments) was “respond significantly” and the “positivity index (P.I.)” value [1] was “at least 150”.
In the case of “DP I-25.2: Der p I peptide (QIYPPNANKIREALAQTHSAIA)”, the “T cell response to selected Der p I peptides” value ([1]; 33 positive experiments) is reported as “respond significantly” and the “positivity index (P.I.)” value [1] is reported as “at least 150”.
In the case of “DP I-28.1: Der p I peptide (NIVGYSNAQGVDYWIVRNSWDTNWGDNGY)”, the “T cell response to selected Der p I peptides” value ([1]; 33 positive experiments) is reported as “respond significantly”.
In the case of “DP II-2: Der p II peptide (HEIKKVLVPGCHGSEPCIIHRGKPF)”, the T cell reactivity ([3]; 26 positive experiments) is reported as “significant T cell reactivity” and the T cell response ([3]; patient 348, native Der p II primed, data not shown) is reported as “responds well”.
In the case of “DP II-3.1: Der p II peptide, native sequence (HGSEPCIIHRGKPFQLEAVFEANQNTKTA)”, the “difference in mean S.I. or percentage of positive responses, original vs additional (native sequence) peptides” value ([3]; DP II-3 vs DP II-3.1) is reported as “no significant difference” and the “T-cell reactivity (DPII-22 series development)” value [3] is reported as “high T-cell reactivity”.
For “DP II-3: Der p II peptide with a low number of conservative changes from the native sequence (HGSEPCIIHRGKPFQLEAVFEAVQNTKTA)”, the T cell reactivity ([3]; 26 positive experiments) was “significant T cell reactivity”.
In the case of “DP II-5: Der p II peptide (KIEIKASIDGLEVDVPGIDPNACHYMK)”, the “T-cell reactivity (DPII-22 series development)” value [3] is reported as “high T-cell reactivity”.
